pIC50, pKi: −log10 of the molar value.
Columns and labels:
[1] = target: T1, Alpha-2A adrenergic receptor (Homo sapiens, UniProt P08913); type: cell membranes, Sf9, Membrane; details: for pIC50: read-out: IC50; for pKi: read-out: Ki; on all read-outs here: in other assays of this panel Not Active means under 50% inhibition at 10 µM
T1 sequence (P08913 whole entry): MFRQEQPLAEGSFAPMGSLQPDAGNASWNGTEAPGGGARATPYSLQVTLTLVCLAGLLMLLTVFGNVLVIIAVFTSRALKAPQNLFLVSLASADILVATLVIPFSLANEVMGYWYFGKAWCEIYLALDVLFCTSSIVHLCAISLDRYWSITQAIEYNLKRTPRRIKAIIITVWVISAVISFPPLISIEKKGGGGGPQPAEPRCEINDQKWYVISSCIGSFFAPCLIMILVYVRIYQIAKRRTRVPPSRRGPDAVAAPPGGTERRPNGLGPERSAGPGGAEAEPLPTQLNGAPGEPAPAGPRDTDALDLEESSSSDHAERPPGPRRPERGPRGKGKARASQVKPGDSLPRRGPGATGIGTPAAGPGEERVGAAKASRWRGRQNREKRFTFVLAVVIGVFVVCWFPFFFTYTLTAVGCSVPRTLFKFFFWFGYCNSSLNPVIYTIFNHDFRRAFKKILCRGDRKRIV

[2] = DRUGMATRIX: Sodium/nucleoside co-transporter radioligand binding (ligand: nitrobenzylthioinosine); type: cell membranes, Cavia porcellus, Dunkin-Hartley, Cerebral cortex, Membrane; details: Not Active = under 50% inhibition at 10 µM
[3] = DRUGMATRIX: Serotonin (5-Hydroxytryptamine) 5-HT3 radioligand binding (ligand: [3H] GR-65630); type: cell membranes, Membrane; details: hek293; Not Active = under 50% inhibition at 10 µM
[4] = target: T2, Alpha-1D adrenergic receptor (Homo sapiens, UniProt P25100); type: cell membranes, HEK293, Membrane; details: for pIC50: read-out: IC50; for pKi: read-out: Ki; on all read-outs here: in other assays of this panel Not Active means under 50% inhibition at 10 µM
T2 sequence (P25100 whole entry): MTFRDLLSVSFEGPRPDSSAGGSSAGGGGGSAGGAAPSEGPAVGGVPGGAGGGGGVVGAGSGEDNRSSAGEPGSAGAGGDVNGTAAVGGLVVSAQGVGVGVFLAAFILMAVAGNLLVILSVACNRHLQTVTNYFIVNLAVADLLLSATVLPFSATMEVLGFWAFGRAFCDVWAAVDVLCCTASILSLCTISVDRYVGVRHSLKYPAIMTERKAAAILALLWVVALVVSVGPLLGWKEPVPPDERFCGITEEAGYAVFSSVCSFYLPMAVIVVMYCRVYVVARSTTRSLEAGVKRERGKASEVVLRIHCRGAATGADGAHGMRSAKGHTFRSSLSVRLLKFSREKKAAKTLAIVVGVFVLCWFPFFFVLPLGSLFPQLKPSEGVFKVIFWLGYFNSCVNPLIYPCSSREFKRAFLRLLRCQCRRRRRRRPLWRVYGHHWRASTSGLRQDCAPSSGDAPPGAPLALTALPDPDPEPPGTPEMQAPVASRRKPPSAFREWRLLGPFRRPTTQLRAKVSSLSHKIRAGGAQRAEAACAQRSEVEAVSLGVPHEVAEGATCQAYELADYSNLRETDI

[5] = target: 5-hydroxytryptamine receptor 6 (Homo sapiens, UniProt P50406); type: cell membranes, HeLa, Membrane; details: hela; further: in other assays of this panel Not Active means under 50% inhibition at 10 µM
[6] = DRUGMATRIX: ATPase, Na+/K+ enzyme inhibition (substrate: ATP); type: tissue-based, Sus scrofa, Heart; details: Not Active = under 50% inhibition at 10 µM
Insulin receptor = Insulin receptor (Rattus norvegicus, UniProt P15127); type: cell membranes, Wistar, Liver, Membrane; further: in other assays of this panel Not Active means under 50% inhibition at 10 µM
Chain of Insulin receptor (P15127 27-759 limits assumed): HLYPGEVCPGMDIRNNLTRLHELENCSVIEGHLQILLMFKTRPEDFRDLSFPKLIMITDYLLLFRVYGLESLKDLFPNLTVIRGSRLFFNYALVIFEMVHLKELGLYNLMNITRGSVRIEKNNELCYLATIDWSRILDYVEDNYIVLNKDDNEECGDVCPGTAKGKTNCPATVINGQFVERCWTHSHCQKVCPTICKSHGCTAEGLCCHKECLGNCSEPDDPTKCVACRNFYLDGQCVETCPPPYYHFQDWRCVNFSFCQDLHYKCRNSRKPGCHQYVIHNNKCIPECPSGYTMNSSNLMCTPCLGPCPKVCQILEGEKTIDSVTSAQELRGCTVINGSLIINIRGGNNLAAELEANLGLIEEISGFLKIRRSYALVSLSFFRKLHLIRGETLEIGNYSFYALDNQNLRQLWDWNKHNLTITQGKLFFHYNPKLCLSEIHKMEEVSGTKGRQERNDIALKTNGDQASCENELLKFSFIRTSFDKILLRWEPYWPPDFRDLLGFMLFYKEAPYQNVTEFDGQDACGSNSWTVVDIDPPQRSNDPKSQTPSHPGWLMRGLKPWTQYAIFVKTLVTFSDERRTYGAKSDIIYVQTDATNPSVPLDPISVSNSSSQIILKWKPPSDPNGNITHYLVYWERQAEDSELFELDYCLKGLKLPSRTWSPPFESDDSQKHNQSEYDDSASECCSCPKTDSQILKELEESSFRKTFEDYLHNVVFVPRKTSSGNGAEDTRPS
Chain of Insulin receptor (P15127 764-1383 limits assumed): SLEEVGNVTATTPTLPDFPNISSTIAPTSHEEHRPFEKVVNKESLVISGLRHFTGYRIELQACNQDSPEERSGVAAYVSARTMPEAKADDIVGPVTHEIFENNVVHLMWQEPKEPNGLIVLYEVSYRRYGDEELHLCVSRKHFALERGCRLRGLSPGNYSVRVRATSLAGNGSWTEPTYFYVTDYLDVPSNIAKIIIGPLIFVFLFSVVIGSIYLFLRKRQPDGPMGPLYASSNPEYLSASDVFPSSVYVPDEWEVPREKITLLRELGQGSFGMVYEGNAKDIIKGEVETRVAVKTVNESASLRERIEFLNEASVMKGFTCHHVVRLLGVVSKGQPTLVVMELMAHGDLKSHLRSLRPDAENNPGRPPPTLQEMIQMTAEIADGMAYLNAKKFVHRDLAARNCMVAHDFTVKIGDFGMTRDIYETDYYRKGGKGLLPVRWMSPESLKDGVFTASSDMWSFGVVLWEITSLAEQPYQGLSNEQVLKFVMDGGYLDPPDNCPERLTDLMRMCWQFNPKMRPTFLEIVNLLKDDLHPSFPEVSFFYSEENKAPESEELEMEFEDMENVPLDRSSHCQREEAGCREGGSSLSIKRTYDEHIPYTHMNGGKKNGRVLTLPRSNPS

Chain of 5-hydroxytryptamine receptor 6 (P50406 whole entry): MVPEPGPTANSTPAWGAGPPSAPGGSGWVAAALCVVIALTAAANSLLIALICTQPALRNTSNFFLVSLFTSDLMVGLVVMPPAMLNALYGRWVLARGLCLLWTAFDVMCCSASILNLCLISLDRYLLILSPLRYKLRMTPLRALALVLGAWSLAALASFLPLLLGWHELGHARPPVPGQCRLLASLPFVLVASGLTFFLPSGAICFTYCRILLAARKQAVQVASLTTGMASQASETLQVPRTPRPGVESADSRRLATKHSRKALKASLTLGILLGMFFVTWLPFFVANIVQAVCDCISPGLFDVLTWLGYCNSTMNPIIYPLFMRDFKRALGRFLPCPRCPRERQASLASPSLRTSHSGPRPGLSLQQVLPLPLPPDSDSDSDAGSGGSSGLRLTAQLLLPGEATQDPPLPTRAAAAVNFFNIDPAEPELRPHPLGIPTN

Compound	IC50 ([1]; sf9)	IC50 [2]	Ki [2]	IC50 [3]	Ki [3]	IC50 ([4]; hek293)	IC50 [5]	IC50 [6]	Ki [6]	IC50 (Insulin receptor)	pIC50 [1]	pKi [1]	pIC50 [4]	pKi [4]	Ki ([1]; sf9)	Ki ([4]; hek293)	Ki [5]	Ki (Insulin receptor)
N#Cc1ccc(C(c2ccc(C#N)cc2)n2cncn2)cc1 [LETROZOLE]	Not Active	Not Active	Not Active	Not Active	Not Active	Not Active	Not Active	Not Active	Not Active	Not Active	–	–	–	–	–	–	–	–
COc1cc2nc(N3CCN(C(=O)C4CCCO4)CC3)nc(N)c2cc1OC (stereo not drawn) [TERAZOSIN]	–	Not Active	Not Active	Not Active	Not Active	–	Not Active	Not Active	Not Active	Not Active	4.86	5.29	7.77	8.08	–	–	–	–
O=C(O)c1cn(-c2ccc(F)cc2)c2cc(N3CCNCC3)c(F)cc2c1=O [SARAFLOXACIN]	Not Active	Not Active	Not Active	Not Active	Not Active	Not Active	Not Active	Not Active	Not Active	Not Active	–	–	–	–	–	–	–	–
CO[C@H]1/C=C/O[C@@]2(C)Oc3c(C)c(O)c4c(O)c(c(/C=N/N5CCN(C6CCCC6)CC5)c(O)c4c3C2=O)NC(=O)/C(C)=C\C=C\[C@H](C)[C@H](O)[C@@H](C)[C@@H](O)[C@@H](C)[C@H](OC(C)=O)[C@@H]1C [RIFAPENTINE]	Not Active	Not Active	Not Active	Not Active	Not Active	Not Active	Not Active	Not Active	Not Active	Not Active	–	–	–	–	–	–	–	–
CCCCOc1cc(CC2CNC(=O)N2)ccc1OC (stereo not drawn) [RO-201724]	Not Active	Not Active	Not Active	Not Active	Not Active	Not Active	Not Active	Not Active	Not Active	Not Active	–	–	–	–	–	–	–	–
CC[C@@H](C(=O)[C@@H](C)[C@@H](O)[C@H](C)[C@@H]1O[C@@H]([C@@H](CC)C(=O)O)CC[C@@H]1C)[C@H]1O[C@]2(C=C[C@@H](O)[C@]3(CC[C@@](C)([C@H]4CC[C@](O)(CC)[C@H](C)O4)O3)O2)[C@H](C)C[C@@H]1C [SALINOMYCIN]	Not Active	Not Active	Not Active	Not Active	Not Active	Not Active	Not Active	Not Active	Not Active	Not Active	–	–	–	–	–	–	–	–
CCCCNc1ccc(C(=O)OCCN(C)C)cc1 [TETRACAINE]	Not Active	Not Active	Not Active	Not Active	Not Active	Not Active	Not Active	Not Active	Not Active	Not Active	–	–	–	–	–	–	–	–
CCN(CC)CCNC(=O)c1cc(S(C)(=O)=O)ccc1OC [TIAPRIDE]	–	Not Active	Not Active	Not Active	Not Active	Not Active	Not Active	Not Active	Not Active	Not Active	5.68	6.11	–	–	–	–	–	–
MANGANESE CHLORIDE ANHYDROUS	Not Active	Not Active	Not Active	Not Active	Not Active	Not Active	Not Active	Not Active	Not Active	Not Active	–	–	–	–	Not Active	Not Active	Not Active	Not Active
O.O.O.O.O.O.[Cl-].[Cl-].[Sr+2] [STRONTIUM CHLORIDE HEXAHYDRATE]	Not Active	Not Active	Not Active	Not Active	Not Active	Not Active	Not Active	Not Active	Not Active	Not Active	–	–	–	–	–	–	–	–
CNC1(c2ccccc2Cl)CCCCC1=O (stereo not drawn) [KETAMINE]	Not Active	Not Active	Not Active	Not Active	Not Active	Not Active	Not Active	Not Active	Not Active	Not Active	–	–	–	–	–	–	–	–
CCN(CC)CC(=O)Nc1c(C)cccc1C [LIDOCAINE]	Not Active	Not Active	Not Active	Not Active	Not Active	Not Active	Not Active	Not Active	Not Active	Not Active	–	–	–	–	–	–	–	–
Nc1cc(N2CCCCC2)nc(N)[n+]1[O-] [MINOXIDIL]	Not Active	Not Active	Not Active	Not Active	Not Active	Not Active	Not Active	Not Active	Not Active	Not Active	–	–	–	–	–	–	–	–
COc1c2occc2cc2ccc(=O)oc12 [METHOXSALEN]	Not Active	Not Active	Not Active	Not Active	Not Active	Not Active	Not Active	Not Active	Not Active	Not Active	–	–	–	–	–	–	–	–
Cc1c(C)c2c(c(C)c1O)CCC(C)(CN1CCN(c3cc(N4CCCC4)nc(N4CCCC4)n3)CC1)O2 (stereo not drawn)	Not Active	Not Active	Not Active	Not Active	Not Active	–	Not Active	Not Active	Not Active	Not Active	–	–	4.57	4.88	–	–	–	–
CS(=O)(=O)c1ccc([C@@H](O)[C@@H](CO)NC(=O)C(Cl)Cl)cc1 [THIAMPHENICOL]	Not Active	Not Active	Not Active	Not Active	Not Active	Not Active	Not Active	Not Active	Not Active	Not Active	–	–	–	–	–	–	–	–
CC(C)Oc1ccc2c(=O)c(-c3ccccc3)coc2c1 [IPRIFLAVONE]	Not Active	Not Active	Not Active	Not Active	Not Active	Not Active	Not Active	Not Active	Not Active	Not Active	–	–	–	–	–	–	–	–
CCN1CCC[C@H]1CNC(=O)c1cc(S(N)(=O)=O)ccc1OC [LEVOSULPIRIDE]	Not Active	Not Active	Not Active	Not Active	Not Active	Not Active	Not Active	Not Active	Not Active	Not Active	–	–	–	–	–	–	–	–
